Measured values taken from article PMC12429564.

Columns and labels:
[1] = tested on: U31 (DNA, aptamer) ATCCAGAGTGACGCAGCATTTGTTTAATATGTTTTTTAATTCCCCTTGTGGTGTGTTGTGGACACGGTGGCTTAGT; experiment: fluorescence quenching titration, Hill fit; conditions: 50 mM NaCl, 10 mM KCl, 5 mM MgCl2; Tris-HCl pH 7.4; 1.5 μM DOX titrated with nucleic acid; apparent; Hill n = 0.95 ± 0.04
[2] = tested on: hh’ (DNA, duplex) CATTTAGGACCAACACAA/TTGTGTTGGTCCTAAATG; experiment: fluorescence quenching titration, Hill fit; conditions: 50 mM NaCl, 10 mM KCl, 5 mM MgCl2; Tris-HCl pH 7.4; 1.5 μM DOX titrated with nucleic acid; apparent; Hill n = 0.96 ± 0.03
[3] = tested on: ACCO GR20hh’ (DNA, aptamer) ACGCACCATTTGTTTAATATGTTTTTTAATTCCCCTTGTGGTGTGTTTCATTTAGGACCAACACAA/TTGTGTTGGTCCTAAATG; experiment: fluorescence quenching titration, Hill fit; conditions: 50 mM NaCl, 10 mM KCl, 5 mM MgCl2; Tris-HCl pH 7.4; 1.5 μM DOX titrated with nucleic acid; apparent; Hill n = 1.58 ± 0.09
[4] = tested on: GR20 (DNA, aptamer) ACGCACCATTTGTTTAATATGTTTTTTAATTCCCCTTGTGGTGTGT; experiment: fluorescence quenching titration, Hill fit; conditions: 50 mM NaCl, 10 mM KCl, 5 mM MgCl2; Tris-HCl pH 7.4; 1.5 μM DOX titrated with nucleic acid; apparent; Hill n = 1.13 ± 0.03
[5] = target: T1, EGFR* (recombinant extracellular domain of human EGFR) (human, UniProt P00533 25-645); experiment: BLI; kon 3.7e5 M-1 s-1; koff 40e-4 s-1; BLI buffer and temperature not in the material; aptamers folded at 1 uM in PBS with 5 mM MgCl2 (95 C 5 min, slow cooling); ACCO assembled in PBS + 5 mM MgCl2 or Tris-HCl pH 7.4, 50 mM NaCl, 10 mM KCl, 5 mM MgCl2; conditions: protein: recombinant; 18 bp duplex of S5 with 3' end of S3; GR20 part imperfect hairpin (predicted)
[6] = target: T1, EGFR* (recombinant extracellular domain …); experiment: BLI; kon 4.3e5 M-1 s-1; koff 61e-4 s-1; BLI buffer and temperature not in the material; aptamers folded at 1 uM in PBS with 5 mM MgCl2 (95 C 5 min, slow cooling); ACCO assembled in PBS + 5 mM MgCl2 or Tris-HCl pH 7.4, 50 mM NaCl, 10 mM KCl, 5 mM MgCl2; conditions: protein: recombinant; imperfect hairpin (predicted)
[7] = target: T1, EGFR* (recombinant extracellular domain …); experiment: BLI; kon 2.0e5 M-1 s-1; koff 29e-4 s-1; possibly from the authors' earlier work [36], not marked as cited in table; BLI buffer and temperature not in the material; aptamers folded at 1 uM in PBS with 5 mM MgCl2 (95 C 5 min, slow cooling); ACCO assembled in PBS + 5 mM MgCl2 or Tris-HCl pH 7.4, 50 mM NaCl, 10 mM KCl, 5 mM MgCl2; conditions: protein: recombinant; imperfect hairpins (predicted)

## COc1cccc2c1C(=O)c1c(O)c3c(c(O)c1C2=O)C[C@@](O)(C(=O)CO)C[C@@H]3O[C@H]1C[C@H](N)[C@H](O)[C@H](C)O1
[1]
  aKd: 47 ± 3 nM
[2]
  aKd: 124 ± 3 nM
[3]
  aKd: 26 ± 1 nM
[4]
  aKd: 90 ± 3 nM

B1: ACCO GR20hh' (mixed)
DNA 1: ACGCACCATTTGTTTAATATGTTTTTTAATTCCCCTTGTGGTGTGTTTCATTTAGGACCAACACAA
DNA 2: TTGTGTTGGTCCTAAATG
[5]
  Kd: 10.8 ± 1.4 nM

## ACGCACCATTTGTTTAATATGTTTTTTAATTCCCCTTGTGGTGTGT (ssDNA) [GR20]
[6]
  Kd: 14.2 ± 0.5 nM

B2: U31 (ssDNA)
DNA: ATCCAGAGTGACGCAGCATTTGTTTAATATGTTTTTTAATTCCCCTTGTGGTGTGTTGTGGACACGGTGGCTTAGT
[7]
  Kd: 15 ± 1.7 nM
